Assay results from patent publication US20230312577A1, “DUAL KINASE-BROMODOMAIN INHIBITORS” (MONASH UNIVERSITY, priority 2020, published 2023).
Each block holds one compound with its values, some of them ahead of it.

Legend:
OPM2 cells = assay: Cell proliferation assay (ViaLight, cellular ATP); format: cell-based; settings: Homo sapiens, OPM-2, 120 h, 5 days, 5 μM to 1 nM
Experimental: OPM2 cells (1×10^3) were plated in a 96 well plate. Test compounds were added to cells at final concentrations ranging from 5 μM to 1 nM. They were incubated for 5 days before they were analysed using ViaLight luminescence-based proliferation assays which detect cellular ATP, as per the manufacturer's instructions. All samples were prepared in technical triplicates. Data analysis was performed in GraphPad Prism version 7.00 for Mac OS X, (GraphPad Software, San Diego California USA) in order to calculate the GI50.

PI3K = biological target: T1, PI3K; assay: PI3K enzyme activity assay (luminescence, ATP consumption, Kinase-Glo); format: biochemical; settings: 10 μM ATP, 180 μM phosphatidyl inositol, 60 min
T1 construct: PI3K Enzyme Activity Assay IC50 (nM); other: 10 μM ATP, 180 μM phosphatidyl inositol, 60 min
Experimental: PI3K activity was determined using a luminescence assay measuring ATP consumption as described previously (J.-A. Pinson, Z. Zheng, M. S. Miller, D. K. Chalmers, I. G. Jennings, P. E. Thompson, L-Aminoacyl-triazine derivatives are isoform-selective PI3Kβ inhibitors that target nonconserved Asp862 of PI3Kb, ACS Med. Chem. Lett. 4 (2013) 206-210). PI3K enzyme activity was determined in 25 μl of 20 mM HEPES pH 7.5, 5 mM MgCl2 with 180 μM phosphatidyl inositol and 10 μMATP. After a 60 min incubation at room temperature the reaction was stopped by the addition of Kinase-Glo (Promega) followed by a further 15 min incubation. Luminescence was then read using a Fluostar plate reader (BMGLabtech).
Inhibitors were diluted in 20% (v/v) DMSO at the indicated concentrations in order to generate a concentration versus inhibition of enzyme activity curve which was then analysed using GraphPad Prism version 8.00 for Windows, (GraphPad Software, San Diego California USA) in order to calculate the IC50. Standard deviations for the calculated IC50's are within 25% of the mean.

[1] = biological target: GST-BRD4 (binding domain 1, amino acids 44-168) (Homo sapiens, UniProt O60885); assay: Bromodomain binding assay (FRET); settings: for IC50: BRD4 binding domain 1, tetracetylated histone 4 peptide
Experimental: Inhibition of bromodomain binding was measured using a FRET (fluorescence resonance energy transfer) based assay. […] In the presence of the two detection reagents, streptavidin D2 and anti-GST-Eu (CisBio) binding trig-gers a FRET signal detected by fluorescence at 665 nm as measured using a Pherastar reader (BMG Labtech). Data was analysed using GraphPad Prism version 8.00 for Windows, (GraphPad Software, San Diego California USA) in order to calculate the IC50. Standard deviations for the calculated IC50's are within 25% of the mean.

IC50 (PI3K): ≤ 0.1 µM
IC50 [1]: > 0.5 µM
SMILES: CC(=O)N1c2ccc(-c3ccc(CNC(=O)CNC(=O)c4cn5cc(-c6cnc(N)nc6)nc(N6CCOCC6)c5n4)cc3)cc2CCC1C (centres unmarked) [Cpd 003, N-(2-((4-(1-Acetyl-2-methyl-1,2,3,4-tetrahydroquinolin-6-yl)benzyl)amino)-2-oxoethyl)-6-(2-aminopyrimidin-5-yl)-8-morpholinoimidazo[1,2-a]pyrazine-2-carboxamide]
GI50 (OPM2 cells): 0.1 to 0.5 µM

IC50 (PI3K): 0.1 to 0.5 µM
IC50 [1]: 0.1 to 0.5 µM
SMILES: CC(=O)N1c2ccc(-c3ccc(CN4CCN(C(=O)c5cn6cc(-c7cnc(N)nc7)nc(N7CCOCC7)c6n5)CC4)s3)cc2CCC1C (centres unmarked) [Cpd 004, 1-(6-(5-((4-(6-(2-Aminopyrimidin-5-yl)-8-morpholinoimidazo[1,2-a]pyrazine-2-carbonyl)piperazin-1-yl)methyl)thiophen-2-yl)-2-methyl-3,4-dihydroquinolin-1(2H)-yl)ethan-1-one]

IC50 (PI3K): ≤ 0.1 µM
IC50 [1]: 0.1 to 0.5 µM
SMILES: CC(=O)N1c2ccc(-c3ccc(CNC(=O)c4cn5cc(-c6cnc(N)nc6)nc(N6CCOCC6)c5n4)s3)cc2CCC1C (centres unmarked) [Cpd 005, N-((5-(1-Acetyl-2-methyl-1,2,3,4-tetrahydroquinolin-6-yl)thiophen-2-yl)methyl)-6-(2-aminopyrimidin-5-yl)-8-morpholinoimidazo[1,2-a]pyrazine-2-carboxamide]
GI50 (OPM2 cells): ≤ 0.1 µM

IC50 (PI3K): ≤ 0.1 µM
IC50 [1]: > 0.5 µM
SMILES: CC(=O)N1c2ccc(-c3ccc(C(=O)CNC(=O)c4cn5cc(-c6cnc(N)nc6)nc(N6CCOCC6)c5n4)cc3)cc2CCC1C (centres unmarked) [Cpd 008, N-(2-(4-(1-Acetyl-2-methyl-1,2,3,4-tetrahydroquinolin-6-yl)phenyl)-2-oxoethyl)-6-(2-aminopyrimidin-5-yl)-8-morpholinoimidazo[1,2-a]pyrazine-2-carboxamide]

IC50 (PI3K): ≤ 0.1 µM
SMILES: CC(=O)N1c2ccc(-c3ccc(CNC(=O)c4nc5c(N6CCOCC6)nc(-c6cnc(N)nc6)cn5c4C)cc3)cc2CC[C@@H]1C [Cpd 020, (S)-N-(4-(1-acetyl-2-methyl-1,2,3,4-tetrahydroquinolin-6-yl)benzyl)-6-(2-aminopyrimidin-5-yl)-3-methyl-8-morpholinoimidazo[1,2-a]pyrazine-2-carboxamide]
GI50 (OPM2 cells): ≤ 0.1 µM

IC50 (PI3K): ≤ 0.1 µM
SMILES: CC(=O)N1c2ccc(-c3ccc(C(=O)NCCNC(=O)c4nc5c(N6CCOCC6)nc(-c6cnc(N)nc6)cn5c4C)cc3)cc2CC[C@@H]1C [Cpd 021, (S)-N-(2-(4-(1-Acetyl-2-methyl-1,2,3,4-tetrahydroquinolin-6-yl)benzamido)ethyl)-6-(2-aminopyrimidin-5-yl)-3-methyl-8-morpholinoimidazo[1,2-a]pyrazine-2-carboxamide]
GI50 (OPM2 cells): ≤ 0.1 µM

IC50 (PI3K): ≤ 0.1 µM
SMILES: CC(=O)N1c2ccc(-c3ccc(CC(=O)NCc4cc5nc(-c6cnc(N)nc6)nc(N6CCOCC6)c5s4)cc3)cc2CC[C@@H]1C [Cpd 027, (S)-2-(4-(1-Acetyl-2-methyl-1,2,3,4-tetrahydroquinolin-6-yl)phenyl)-N-((2-(2-aminopy-rimidin-5-yl)-4-morpholinothieno[3,2-d]pyrimidin-6-yl)methyl)acetamide]
GI50 (OPM2 cells): 0.1 to 0.5 µM

IC50 (PI3K): 0.1 to 0.5 µM
SMILES: CC(=O)N1c2ccc(-c3ccc(CN4CCN(Cc5cc6nc(-c7cnc(N)nc7)nc(N7CCOCC7)c6s5)CC4)cc3)cc2CC[C@@H]1C [Cpd 029, (S)-1-(6-(4-((4-((2-(2-Aminopyrimidin-5-yl)-4-morpholinothieno[3,2-d]pyrimidin-6-yl)methyl)piperazin-1-yl)methyl)phenyl)-2-methyl-3,4-dihydroquinolin-1(2H)-yl)ethan-1-one]
GI50 (OPM2 cells): 0.1 to 0.5 µM

IC50 (PI3K): 0.1 to 0.5 µM
SMILES: CC(=O)N1c2ccc(-c3ccc(C(=O)NCCNC(=O)c4cc5nc(-c6cnc(N)nc6)nc(N6CCOCC6)c5s4)cc3)cc2CC[C@@H]1C [Cpd 031, (S)-N-(2-(4-(1-Acetyl-2-methyl-1,2,3,4-tetrahydroquinolin-6-yl)benzamido)ethyl)-2-(2-aminopyrimidin-5-yl)-4-morpholinothieno[3,2-d]pyrimidine-6-carboxamide]
GI50 (OPM2 cells): ≤ 0.1 µM

IC50 (PI3K): > 0.5 µM
SMILES: CC(=O)N1c2ccc(-c3ccc(CNC(=O)c4sc5c(N6CCOCC6)nc(-c6cnc(N)nc6)nc5c4C)cc3)cc2CC[C@@H]1C [Cpd 032, (S)-N-(4-(1-acetyl-2-methyl-1,2,3,4-tetrahydroquinolin-6-yl)benzyl)-2-(2-aminopyrimidin-5-yl)-7-methyl-4-morpholinothieno[3,2-d]pyrimidine-6-carboxamide]
GI50 (OPM2 cells): ≤ 0.1 µM

The next lines start with the compound.

SMILES: CC(=O)N1c2ccc(-c3ccc(C(=O)N4CCN(C(=O)c5cn6cc(-c7cnc(N)nc7)nc(N7CCOCC7)c6n5)CC4)cc3)cc2CCC1C (centres unmarked) [Cpd 001, 1-(6-(4-(4-(6-(2-Aminopyrimidin-5-yl)-8-morpholinoimidazo[1,2-a]pyrazine-2-carbonyl)piperazine-1-carbonyl)phenyl)-2-methyl-3,4-dihydroquinolin-1(2H)-yl)ethan-1-one]
GI50 (OPM2 cells): 0.1 to 0.5 µM
IC50 (PI3K): > 0.5 µM
IC50 [1]: > 0.5 µM

SMILES: CC(=O)N1c2ccc(-c3ccc(CNC(=O)c4cn5cc(-c6cnc(N)nc6)nc(N6CCOCC6)c5n4)cc3)cc2CCC1C (centres unmarked) [Cpd 002, N-(4-(1-Acetyl-2-methyl-1,2,3,4-tetrahydroquinolin-6-yl)benzyl)-6-(2-aminopyrimidin-5-yl)-8-morpholinoimidazo[1,2-a]pyrazine-2-carboxamide]
GI50 (OPM2 cells): ≤ 0.1 µM
IC50 (PI3K): ≤ 0.1 µM
IC50 [1]: 0.1 to 0.5 µM

SMILES: CC(=O)N1c2ccc(-c3ccc(C(=O)CN4CCN(C(=O)c5cn6cc(-c7cnc(N)nc7)nc(N7CCOCC7)c6n5)CC4)cc3)cc2CCC1C (centres unmarked) [Cpd 007, 1-(4-(1-acetyl-2-methyl-1,2,3,4-tetrahydroquinolin-6-yl)phenyl)-2-(4-(6-(2-aminopyrimidin-5-yl)-8-morpholinoimidazo[1,2-a]pyrazine-2-carbonyl)piperazin-1-yl)ethan-1-one]
IC50 (PI3K): ≤ 0.1 µM
IC50 [1]: > 0.5 µM

SMILES: CC(=O)N1c2ccc(-c3ccc(C(=O)NCc4cc5nc(-c6cnc(N)nc6)nc(N6CCOCC6)c5s4)cc3)cc2CC[C@@H]1C [Cpd 026, (S)-4-(1-Acetyl-2-methyl-1,2,3,4-tetrahydroquinolin-6-yl)-N-((2-(2-aminopyrimidin-5-yl)-4-morpholinothieno[3,2-d]pyrimidin-6-yl)methyl)benzamide]
GI50 (OPM2 cells): ≤ 0.1 µM
IC50 (PI3K): 0.1 to 0.5 µM

SMILES: CC(=O)N1c2ccc(-c3ccc(C(=O)N4CCN(Cc5cc6nc(-c7cnc(N)nc7)nc(N7CCOCC7)c6s5)CC4)cc3)cc2CC[C@@H]1C [Cpd 028, (S)-1-(6-(4-(4-((2-(2-Aminopyrimidin-5-yl)-4-morpholinothieno[3,2-d]pyrimidin-6-yl)methyl)piperazine-1-carbonyl)phenyl)-2-methyl-3,4-dihydroquinolin-1(2H)-yl)ethan-1-one]
GI50 (OPM2 cells): 0.1 to 0.5 µM
IC50 (PI3K): 0.1 to 0.5 µM

SMILES: CC(=O)N1c2ccc(-c3ccc(CNC(=O)c4cc5nc(-c6cnc(N)nc6)nc(N6CCOCC6)c5s4)cc3)cc2CC[C@@H]1C [Cpd 030, (S)-N-(4-(1-acetyl-2-methyl-1,2,3,4-tetrahydroquinolin-6-yl)benzyl)-2-(2-aminopyrimidin-5-yl)-4-morpholinothieno[3,2-d]pyrimidine-6-carboxamide]
GI50 (OPM2 cells): ≤ 0.1 µM
IC50 (PI3K): > 0.5 µM

SMILES: CC(=O)N1c2ccc(-c3ccc(C(=O)NCCNC(=O)c4sc5c(N6CCOCC6)nc(-c6cnc(N)nc6)nc5c4C)cc3)cc2CC[C@@H]1C [Cpd 033, (S)-N-(2-(4-(1-Acetyl-2-methyl-1,2,3,4-tetrahydroquinolin-6-yl)benzamido)ethyl)-2-(2-aminopyrimidin-5-yl)-7-methyl-4-morpholinothieno[3,2-d]pyrimidine-6-carboxamide]
GI50 (OPM2 cells): ≤ 0.1 µM
IC50 (PI3K): ≤ 0.1 µM

SMILES: CC(=O)N1c2ccc(-c3ccc(CNC(=O)c4cn5cc(-c6cnc(N)nc6)nc(N6CCNCC6)c5n4)cc3)cc2CC[C@@H]1C.Cl [Cpd 035, (S)-N-(4-(1-acetyl-2-methyl-1,2,3,4-tetrahydroquinolin-6-yl)benzyl)-6-(2-aminopyrimidin-5-yl)-8-(piperazin-1-yl)imidazo[1,2-a]pyrazine-2-carboxamide hydrochloride]
GI50 (OPM2 cells): ≤ 0.1 µM
selectivity (BRD-4) [1]: selective BRD-4 inhibitor

SMILES: CC(=O)N1c2ccc(-c3ccc(CNC(=O)c4cc5nc(-c6cnc(N)nc6)cc(N6CCOCC6)n5n4)cc3)cc2CC[C@@H]1C [Cpd 075, (S)-N-(4-(1-Acetyl-2-methyl-1,2,3,4-tetrahydroquinolin-6-yl)benzyl)-5-(2-aminopyrimidin-5-yl)-7-morpholinopyrazolo[1,5-a]pyrimidine-2-carboxamide]
GI50 (OPM2 cells): ≤ 0.1 µM
